Data from patent US10538521B2, “Pyrimidine derivative having antimalarial activity” (CARNA BIOSCIENCES, INC., priority 2016, dated 2020).

Experiments:
[1] = tested on: FCR3 strain, a drug sensitive strain of Plasmodium falciparum; experiment: In vitro antimalarial assay (p-LDH, Malstat), FCR3 strain; assay type: cell-based; settings: P. falciparum FCR3 (drug sensitive), 72 h culture, p-LDH readout, read-out: Antimalarial activity (IC50 value), Strain FCR3
How it was run: (§1)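 P. falciparum FCR3 and K1 cultured in human erythrocytes (RPMI 1640, 10% human plasma; 2% hematocrit, 0.5 or 1% parasitaemia) with compound at 12.5 to 0.0001 μM final for 72 h at 37° C (3% O2-4% CO2-93% N2). Growth read as p-LDH activity (Malstat/NBT-PES, A655 nm) after freeze-thaw; IC50 from concentration-response curve.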

[2] = tested on: K1 strain, a drug resistant strain of Plasmodium falciparum; experiment: In vitro antimalarial assay (p-LDH, Malstat), K1 strain; assay type: cell-based; settings: P. falciparum K1 (drug resistant), 72 h culture, p-LDH readout, read-out: Antimalarial activity (IC50 value), Strain K1
How it was run: as §1

Row | SMILES | IC50 [1] [nM] | IC50 [2] [nM]
1 | OCCOc1cccc(Nc2nc(Nc3ccn4ccnc4c3)cc(N3CCCC3)n2)n1 [Example 157, 2-[(6-{[4-(imidazo[1,2-a]pyridin-7-ylamino)-6-(pyrrolidin-1-yl)pyrimidin-2-yl]amino}pyridin-2-yl)oxy]ethanol] | < 100 | < 100
2 | CCOc1ccc(Nc2nc(Nc3ccn4ccnc4c3)cc(N3CCOCC3)n2)cn1 [Example 7, N2-(6-Ethoxypyridin-3-yl)-N4-(imidazo[1,2-a]pyridin-7-yl)-6-morpholinopyrimidine-2,4-diamine] | < 100 | < 100
3 | Cc1cc(C)nc(Nc2nc(Nc3ccn4ccnc4c3)cc(N3CCC(N(C)C)CC3)n2)c1 [Example 134, 6-(4-(dimethylamino)piperidin-1-yl)-N2-(4,6-dimethylpyridin-2-yl)-N4-(imidazo[1,2-a]pyridin-7-yl)pyrimidine-2,4-diamine] | < 100 | < 100
4 | c1cncc(Nc2nc(Nc3ccn4ccnc4c3)cc(N3CCOCC3)n2)c1 [Example 4, N4-(Imidazo[1,2-a]pyridin-7-yl)-6-morpholino-N2-(pyridin-3-yl)pyrimidine-2,4-diamine] | 100 to 1000 | 100 to 1000
5 | Cc1ccc(Nc2nc(Nc3ccn4ccnc4c3)cc(N(C)C)n2)cn1 [Example 83, N4-(imidazo[1,2-a]pyridin-7-yl)-N6,N6-dimethyl-N2-(6-methylpyridin-3-yl)pyrimidine-2,4,6-triamine] | 100 to 1000 | 1000 to 10000
6 | Cc1cc(C)nc(Nc2nc(Nc3ccn4ccnc4c3)cc(N3C[C@@H](C)[C@H](C)C3)n2)c1 (relative stereo) [Example 193, N2-(4,6-dimethylpyridin-2-yl)-6-[trans-3,4-dimethylpyrrolidin-1-yl]-N4-(imidazo[1,2-a]pyridin-7-yl)pyrimidine-2,4-diamine] | < 100 | < 100
7 | CCCOc1ccc(Nc2nc(Nc3ccn4ccnc4c3)cc(N3CCOCC3)n2)cn1 [Example 69, N4-(imidazo[1,2-a]pyridin-7-yl)-6-morpholino-N2-(6-propoxy-pyridin-3-yl)pyrimidine-2,4-diamine] | < 100 | 100 to 1000
8 | Cc1cc(C)nc(Nc2nc(Nc3ccn4ccnc4c3)cc(N3CCCC3)n2)c1 [Example 135, N2-(4,6-dimethylpyridin-2-yl)-N4-(imidazo[1,2-a]pyridin-7-yl)-6-(pyrrolidin-1-yl)pyrimidine-2,4-diamine] | < 100 | < 100
9 | Cc1cccnc1Nc1nc(Nc2ccn3ccnc3c2)cc(N2CCOCC2)n1 [Example 9, N4-(Imidazo[1,2-a]pyridin-7-yl)-N2-(3-methylpyridin-2-yl)-6-morpholinopyrimidine-2,4-diamine] | < 100 | 100 to 1000
10 | CCc1ccnc(Nc2nc(Nc3ccn4ccnc4c3)cc(N3CCC(C)CC3)n2)c1 [Example 98, N2-(4-ethylpyridin-2-yl)-N4-(imidazo[1,2-a]pyridin-7-yl)-6-(4-methylpiperidin-1-yl)pyrimidine-2,4-diamine] | 100 to 1000 | 100 to 1000
11 | Fc1cccc(Nc2nc(Nc3ccn4ccnc4c3)cc(N3CCOCC3)n2)n1 [Example 14, N2-(6-Fluoropyridin-2-yl)-N4-(imidazo[1,2-a]pyridin-7-yl)-6-morpholinopyrimidine-2,4-diamine] | 100 to 1000 | 1000 to 10000
12 | CCCCc1cccc(Nc2nc(Nc3ccn4ccnc4c3)cc(N3CCC3)n2)n1 [Example 167, 6-(azetidin-1-yl)-N2-(6-butylpyridin-2-yl)-N4-(imidazo[1,2-a]pyridin-7-yl)pyrimidine-2,4-diamine] | < 100 | 100 to 1000
13 | CCc1ccnc(Nc2nc(Nc3ccn4ccnc4c3)cc(N3CC[C@@H](O)C3)n2)c1 [Example 116, (R)-1-(2-((4-ethylpyridin-2-yl)amino)-6-(imidazo[1,2-a]pyridin-7-ylamino)pyrimidin-4-yl)pyrrolidin-3-ol] | < 100 | < 100
14 | Cc1cc(C)nc(Nc2nc(Nc3ccn4ccnc4c3)cc(N3CC=CC3)n2)c1 [Example 139, 6-(2,5-dihydro-1H-pyrrol-1-yl)-N2-(4,6-dimethylpyridin-2-yl)-N4-(imidazo[1,2-a]pyridin-7-yl)pyrimidine-2,4-diamine] | < 100 | < 100
15 | CCCc1ccnc(Nc2nc(Nc3ccn4ccnc4c3)cc(N3CCOCC3)n2)c1 [Example 74, N4-(imidazo[1,2-a]pyridin-7-yl)-6-morpholino-N2-(4-propylpyridin-2-yl)pyrimidine-2,4-diamine] | < 100 | 100 to 1000
16 | CCc1ccnc(Nc2nc(Nc3ccn4ccnc4c3)cc(N3CCN[C@@H](C)C3)n2)c1 [Example 97, (S)-N2-(4-ethylpyridin-2-yl)-N4-(imidazo[1,2-a]pyridin-7-yl)-6-(3-methylpiperazin-1-yl)pyrimidine-2,4-diamine] | 100 to 1000 | 100 to 1000

Row | SMILES | IC50 [1] [nM] | IC50 [2] [nM]
17 | CC(C)c1ccnc(Nc2nc(Nc3ccn4ccnc4c3)cc(N3CCCCC3)n2)c1 [Example 73, N4-(imidazo[1,2-a]pyridin-7-yl)-N2-(4-isopropylpyridin-2-yl)-6-(piperidin-1-yl)pyrimidine-2,4-diamine] | 100 to 1000 | 100 to 1000
18 | COC1CCN(c2cc(Nc3ccn4ccnc4c3)nc(Nc3cc(C)cc(C)n3)n2)CC1 [Example 131, N2-(4,6-dimethylpyridin-2-yl)-N4-(imidazo[1,2-a]pyridin-7-yl)-6-(4-methoxypiperidin-1-yl)pyrimidine-2,4-diamine] | < 100 | < 100
19 | Cc1cc(C)nc(Nc2nc(Nc3ccn4ccnc4c3)cc(N3CCC(O)C3)n2)c1 (stereo not shown) [Example 136, 1-(2-((4,6-dimethylpyridin-2-yl)amino)-6-(imidazo[1,2-a]pyridin-7-ylamino)pyrimidin-4-yl)pyrrolidin-3-ol] | < 100 | < 100
20 | Cc1cc(CC(C)C)nc(Nc2nc(Nc3ccn4ccnc4c3)cc(N3CCCCC3)n2)c1 [Example 188, N4-(imidazo[1,2-a]pyridin-7-yl)-N2-(6-isobutyl-4-methylpyridin-2-yl)-6-(piperidin-1-yl) pyrimidine-2,4-diamine] | < 100 | < 100
21 | CCCOCc1cccc(Nc2nc(Nc3ccn4ccnc4c3)cc(N3CCCC3)n2)n1 [Example 164, N4-(imidazo[1,2-a]pyridin-7-yl)-N2-[6-(propoxymethyl)pyridin-2-yl]-6-(pyrrolidin-1-yl) pyrimidine-2,4-diamine] | 100 to 1000 | 1000 to 10000
22 | Cc1cc(C)nc(Nc2nc(Nc3ccn4ccnc4c3)cc(N3CCC(N4CCOCC4)CC3)n2)c1 [Example 132, N2-(4,6-dimethylpyridin-2-yl)-N4-(imidazo[1,2-a]pyridin-7-yl)-6-(4-morpholinopiperidin-1-yl)pyrimidine-2,4-diamine] | < 100 | < 100
23 | Cc1cc(C)nc(Nc2nc(NCc3ccccc3)cc(Nc3ccn4ccnc4c3)n2)c1 [Example 196, N4-benzyl-N2-(4,6-dimethylpyridin-2-yl)-N6-(imidazo[1,2-a]pyridin-7-yl)pyrimidine-2,4,6-triamine] | < 100 | < 100
24 | Cc1ccc(Nc2nc(N)cc(Nc3ccn4ccnc4c3)n2)nc1 [Example 44] | < 100 | < 100
25 | Cc1ccc(Nc2nc(Nc3ccn4ccnc4c3)cc(-n3ccnc3)n2)nc1 [Example 43, N4-(imidazo[1,2-a]pyridin-7-yl)-6-(1H-imidazol-1-yl)-N2-(5-methylpyridin-2-yl)pyrimidine-2,4-diamine] | < 100 | 100 to 1000
26 | Cc1cccc(Nc2nc(Nc3ccn4ccnc4c3)cc(N3CCN(C)CC3)n2)n1 [Example 39, N4-(imidazo[1,2-a]pyridin-7-yl)-6-(4-methylpiperazin-1-yl)-N2-(6-methylpyridin-2-yl)pyrimidine-2,4-diamine] | 1000 to 10000 | 1000 to 10000
27 | CCc1ccnc(Nc2nc(Nc3ccn4ccnc4c3)cc(N3CCCCCC3)n2)c1 [Example 92, 6-(azepan-1-yl)-N2-(4-ethylpyridin-2-yl)-N4-(imidazo[1,2-a]pyridin-7-yl)pyrimidine-2,4-diamine] | < 100 | < 100
28 | CCc1cccc(Nc2nc(Nc3ccn4ccnc4c3)cc(N3CCCCC3)n2)n1 [Example 95, N2-(6-ethylpyridin-2-yl)-N4-(imidazo[1,2-a]pyridin-7-yl)-6-(piperidin-1-yl)pyrimidine-2,4-diamine] | < 100 | < 100
29 | CC(C)COc1ccc(Nc2nc(Nc3ccn4ccnc4c3)cc(N3CCOCC3)n2)cn1 [Example 64, N4-(imidazo[1,2-a]pyridin-7-yl)-N2-(6-isobutoxypyridin-3-yl)-6-morpholinopyrimidine-2,4-diamine] | < 100 | 100 to 1000
30 | FC(F)Oc1ccc(Nc2nc(Nc3ccn4ccnc4c3)cc(N3CCOCC3)n2)cn1 [Example 78, N2-(6-(difluoromethoxy)pyridin-3-yl)-N4-(imidazo[1,2-a]pyridin-7-yl)-6-morpholinopyrimidine-2,4-diamine] | < 100 | 100 to 1000
31 | Cc1ccnc(Nc2nc(Nc3ccn4ccnc4c3)cc(N3CCN(C)CC3)n2)c1 [Example 25, N4-(imidazo[1,2-a]pyridin-7-yl)-6-(4-methylpiperazin-l-yl)-N 2-(4-methylpyridin-2-yl)pyrimidine-2,4-diamine] | 1000 to 10000 | 1000 to 10000
32 | O=[N+]([O-])c1ccnc(Nc2nc(Nc3ccn4ccnc4c3)cc(N3CCOCC3)n2)c1 [Example 49, N4-(imidazo[1,2-a]pyridin-7-yl)-6-morpholino-N2-(4-nitropyridin-2-yl)pyrimidine-2,4-diamine] | 100 to 1000 | 1000 to 10000
